“Also recorded” adds a separate entry of the source. Blank lines part the entries; values can stand above or below the compound they belong to.
Key:
human TM cells [1] = experiment: Regulatory volume decrease (RVD) of human TM cells in hypotonic medium (electronic cell sizing); format: cell-based; conditions: hypotonic medium (200 mOsm), agent at 1 mM
Procedure: (§1) By the second method, TM cells were trypsinized briefly in Ca-free medium, then rinsed with medium containing trypsin inhibitor and suspended in Hepes MEM. Mean cell volumes were then analyzed by electronic cell sizing on a COULTER COUNTER™ radioassay (Model ZM) with channelizer (C256), using at least 50,000 cells per data point and an orifice diameter of 140 μm. Aliquots of suspended cells were diluted into Hepes MEM containing the tonicity and/or agents to be evaluated. Mean cell volumes of each suspension aliquot were followed over time, starting at 1 minute after addition of cells to the assay media. Cell suspensions were maintained at 37° C. throughout the assay period. Absolute volumes (picoliters/cell) were calculated from distribution curves of cell diameter, using a standard curve generated by polystyrene latex beads of known diameter.
In FIG. 7A, cells were exposed to isotonic medium (300 mOsm) or to hypotonic medium (200 mOsm)±1 mM DPC (diphenylamine carboxylate). Cell volume was assessed by COULTER COUNTER™ electronic cell sizing over the time course shown, using TM cells in suspension. […] Data represent means of two experiments, error values shown are SEM, n=4 (two separate RVD runs per experiment).
Data represent means of two experiments, error values shown are SEM, n=4 (two separate RVD runs per experiment).

human TM cells [2] = experiment: Whole cell patch clamp ion conductances of human TM cells; format: cell-based; conditions: human TM cells
Procedure: Further studies conducted with agents known to block Cl and K channels attenuate the swelling-activated regulatory volume decrease in TM cells and niflumic acid reduces both cell volume and intracellular [Cl] of TM cells. In these studies, human TM cells were cultured from donor eyes and used between passages three and eight. Routine whole cell patch clamp methods were used to assess conductances of TM cells in isotonic (290 mOsm) and hypotonic (230 mOsm) media, with or without NPPB, DIDS, TEA or niflumic acid. Conductances were determined from current/voltage plots, generated using a ramp protocol. […] The reversal potential observed in the presence of hypotonic medium was close to the calculated reversal potential for Cl. Switching to an external medium containing reduced Cl shifted the reversal potential toward that calculated for the low Cl medium. Treating the TM cells with the Cl channel blocker NPPB (100 μM) abolished the swelling-activated conductance in a manner reversed by subsequent washout of NPPB. […] Finally, treatment of the cells with the K channel blocker TEA (1 mM) also abolished the niflumic acid-activated TM cell conductance.
Human TM and SC cells grown to subconfluence are gently trypsinized on the day of the experiment and immediately exposed to trypsin-neutralizing solution and then allowed to settle onto standard square (22×22-mm) glass coverslips for 30 minutes before use. Routine patch clamp methods were used as described previously Barakat, A. I., et al., Circulation Research, 85: 820-828, 1999; Hamill, O. P. et al., Pflügers Archives, 391: 85-100, 1981; Mauro, T. et al., J of Invest. Dermatology, 105: 203-208, 1995; Pappone, P. A. et al., J. of Physiology, 306:377-410, 1980; Pappone, P. A. et al., J of Gen. Physiology, 106: 231-258, 1995; Pappone, P. A. et al., Amer. J. of Physiology: Cell Physiology, 264: C1014-C1019, 1993; Wilson, S. M. et al., J. of Gen. Physiology, 113: 125-138, 1999. Using the whole cell patch clamp mode, conductances were assessed for isotonic and hypotonic media. By assessing current/voltage (I/V) relationships and reversal potentials for the TM and SC cells while using specific concentrations of Cl in the pipette and bath media, the nature of the conductances observed can be determined.
Whole cell currents were measured at room temperature in a Warner recording/perfusion chamber (Warner Instrument Corp.) using standard whole-cell patch clamp techniques as described previously, Lucero, M. T. et al., J. of Gen. Physiology, 95:523-544, 1999. Thick-walled borosilicate capillaries (Sutter Instruments, Inc., Novato, Calif.) were used to manufacture pipettes with resistances of 3 to 5 MW. The voltage offset between the patch pipette and the bath solution were nulled immediately before patch formation. An agar bridge containing […] KCl was used to ground the bath solution. Voltages were recorded from a patch-clamp amplifier (AXOPATCH 200A, Axon Instruments). Data was collected on a Macintosh personal computer using Pulse+Pulsefit software (HEKA Elektronik). Whole-cell currents were recorded from single (sub confluent) cells with membrane capacitances nulled through the patch-clamp amplifier. The voltage ramp protocol included a voltage step from the holding potential to +60 mV for 40 ms followed by a ramp to −100 mV over a period of 400 ms followed by a return to the holding potential. During the protocol, voltage ramps were conducted once every 5 seconds for 10 minutes, yielding 120 traces. Conductances were computed by taking the derivative of a least-squares straight line fit to the I-V data plots using Igor Pro Software (Wavemetrics, Inc.). In cases in which the I-V plots are not linear over the entire voltage ramp (as in FIGS. 6AB), computation of the whole-cell conductance were restricted to a linear range, typically 0 to +60 mV. […]

[3] = system: perfused human anterior chambers; experiment: Outflow facility of perfused human anterior chambers; conditions: perfused with bumetamide
Description: The effect is expected to be transient because after the initial cell shrinkage, the co-transporter is activated to restore volume in the TM cells and, thus, the cell shrinkage is only transient. […] Here again, the cells rapidly respond to altered volume, in this case by activating ion efflux pathways to decrease volume of the cells to normal.

Na—K—Cl co-transporter = target: T1, Na—K—Cl co-transporter (Homo sapiens, UniProt P55011); experiment: Na—K—Cl co-transport measured as bumetamide-sensitive K influx (86Rb tracer) in human TM cell monolayers; format: cell-based
T1 construct: endogenous in cells; host or cells: cultured human trabecular meshwork (TM) cells, normal or glaucomatous donors
T1 sequence (P55011 1-1212): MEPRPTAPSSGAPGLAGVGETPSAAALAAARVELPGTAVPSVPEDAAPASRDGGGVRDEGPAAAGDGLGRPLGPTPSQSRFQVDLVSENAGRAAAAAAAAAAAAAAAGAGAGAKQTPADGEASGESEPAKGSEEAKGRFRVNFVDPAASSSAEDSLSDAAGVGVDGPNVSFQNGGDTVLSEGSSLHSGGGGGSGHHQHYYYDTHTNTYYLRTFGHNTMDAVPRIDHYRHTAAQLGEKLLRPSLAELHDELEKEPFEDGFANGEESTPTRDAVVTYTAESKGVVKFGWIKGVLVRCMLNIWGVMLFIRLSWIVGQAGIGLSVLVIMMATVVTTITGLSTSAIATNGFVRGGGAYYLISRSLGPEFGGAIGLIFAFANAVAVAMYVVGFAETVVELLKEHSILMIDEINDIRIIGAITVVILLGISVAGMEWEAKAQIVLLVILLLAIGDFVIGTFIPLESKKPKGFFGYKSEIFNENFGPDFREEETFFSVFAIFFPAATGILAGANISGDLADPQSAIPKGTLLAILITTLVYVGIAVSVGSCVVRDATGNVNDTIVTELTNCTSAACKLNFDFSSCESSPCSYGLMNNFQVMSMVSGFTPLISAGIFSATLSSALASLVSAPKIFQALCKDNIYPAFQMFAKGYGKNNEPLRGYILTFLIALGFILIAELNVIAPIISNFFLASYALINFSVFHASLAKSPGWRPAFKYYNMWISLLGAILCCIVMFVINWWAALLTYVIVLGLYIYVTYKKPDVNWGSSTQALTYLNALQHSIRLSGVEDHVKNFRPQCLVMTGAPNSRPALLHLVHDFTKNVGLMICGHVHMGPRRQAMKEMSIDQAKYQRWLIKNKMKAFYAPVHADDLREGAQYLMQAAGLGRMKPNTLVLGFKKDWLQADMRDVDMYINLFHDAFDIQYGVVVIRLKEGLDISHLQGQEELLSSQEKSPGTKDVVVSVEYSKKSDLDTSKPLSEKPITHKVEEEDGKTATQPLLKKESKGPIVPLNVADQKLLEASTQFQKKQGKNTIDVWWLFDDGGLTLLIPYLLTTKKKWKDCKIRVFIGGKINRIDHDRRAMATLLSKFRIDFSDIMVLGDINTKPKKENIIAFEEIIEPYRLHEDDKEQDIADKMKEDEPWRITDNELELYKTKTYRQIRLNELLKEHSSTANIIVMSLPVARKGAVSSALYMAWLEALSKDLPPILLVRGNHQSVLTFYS
Procedure: Na—K—Cl co-transport was measured as ouabain-insensitive, bumetamide-sensitive potassium influx, using ^86Rb as a tracer for potassium. […] The assay medium also contained ^86Rb (1 μCi/ml) (Dupont New England Nuclear, Boston, Mass.). The assay was terminated by rinsing the wells with ice-cold isotonic MgCl2, then extracting the contents with 0.2% sodium dodecyl sulfate (SDS), and determining the amount of radioactive contents by liquid scintillation. Osmolarities of all preincubation and assay media were verified by osmometry (Model 3W2, Advanced Instruments, Norwood, Mass.).
The cells were pretreated with Hepes-buffered minimal essential medium (MEM) ±10 μM bumetamide ±1 mM ouabain for 5 min, then assayed for 5 min in the same media plus ^86Rb. […] Data are means ±SEM, n=12.
Na—K—Cl co-transport activity of glaucomatous human TM cells was assessed as ouabain-insensitive, bumetamide-sensitive K influx, using ^86Rb as a tracer for K, as described previously. TM cells were preincubated for 5 minutes in a Hepes-buffered MEM containing 0 or 10 μM bumetamide in the presence of 1 mM ouabain, followed by a 5 minute assay in media of identical composition except that they also contained ^86Rb. […] Data are mean values ±SEM in seven normal TM cultures (donor age range, 38-68 years, n=12 in each cell culture) and in seven glaucomatous cultures (donor age range 41-75 years, n=7 in each cell culture).
Human TM cells were equilibrated in Hepes-buffered MEM for 30 minutes and then pretreated for 5 minutes in media containing 1 mM ouabain, 10 or 0 μM bumetamide, and 0.3 μM to 1 mM niflumic acid (NA). Cells were then assayed for bumetamide-sensitive K influx for 5 minutes in media identical to the pretreatment media but also containing ^86Rb (1 μCi/ml). […] Dashed line indicates control level of Na—K—Cl co-transport. Data are means ±SEM of at least 4 determinations from 3 experiments.

human TM cells [4] = experiment: Intracellular volume of human TM cells (14C-urea/14C-sucrose water space or COULTER COUNTER electronic cell sizing), isotonic medium; format: cell-based; conditions: for reduction in intracellular volume: human TM cells, 10 μM bumetamide, isotonic conditions; for TM cell volume: hormones and intracellular regulators acting on the co-transporter
Procedure: The intracellular volume of human and bovine TM cells was evaluated by two methods: 1) radioisotopic evaluation of TM monolayer intracellular water space using ^14C-urea and ^14C-sucrose as markers of total and extracellular space, respectively; and 2) electronic cell sizing of suspended TM cells, using a COULTER COUNTER™ assay (Coulter Electronics, Ltd., Hialeah, Fla.). Details of these methods have been described previously by O'Donnell (O'Donnell, M. E., supra, 1993) the entirety of which is incorporated herein by reference.
By the first method, cell monolayers were preequilibrated for 30 minutes in Hepes MEM at 37° C. in an air atmosphere, then incubated for 20 minutes in Hepes MEM containing 0 or 10 μM bumetamide, ethacrynic acid, or other agents to be tested, and finally incubated for 10 minutes in the same medium containing either ^14C-urea or ^14C-sucrose (both at 1 μCi/ml). Monolayers were then rinsed with isotonic ice-cold MgCl2 and radioactivity of SDS extracts determined by liquid scintillation. Specific activities (counts per minute/ml) of ^14C-urea and ^14C-sucrose in the assay medium were determined and used to calculate water space associated with trapped radioactivity (expressed as μl/mg protein. Intracellular volume was calculated as the difference between the water space determined for ^14C-urea (a marker for intracellular plus trapped extracellular space) and ^14C-sucrose (a marker for trapped extracellular space).
as §1
Human TM cells were exposed to isotonic medium ±niflumic acid (10 or 100 μM)±10 μM bumetamide. Cell volume was assessed by COULTER COUNTER™ electronic cell sizing over the time course shown, using TM cells in suspension. Note that niflumic acid (NA) alone decreases volume of the TM cells and that exposing the cells to NA plus bumetamide causes a further decrease in TM cell volume. Data represent means of two experiments (all conditions shown tested in both experiments).

Compound: O=S(=O)(O)c1cc(N=C=S)ccc1C=Cc1ccc(N=C=S)cc1S(=O)(=O)O [DIDS, 4,4′-diisothiocyanostilbene-2,2′-disulfonic acid]
- regulatory volume decrease (RVD) (human TM cells [1]): attenuated; also recorded: reduced
- swelling-activated (hypotonic medium-induced) ion conductance (human TM cells [2]; DIDS 1 mM): does not increase; also recorded: abolished; also recorded: blocked

Compound: O=C(O)c1ccccc1Nc1ccccc1 [DPC, diphenylamine carboxylate]
- regulatory volume decrease (RVD) (human TM cells [1]): attenuated

Compound: O=C(O)c1cc([N+](=O)[O-])ccc1NCCCc1ccccc1 [NPPB]
- swelling-activated (hypotonic medium-induced) ion conductance (human TM cells [2]; NPPB 100 μM): blocked; also recorded: abolished

Compound: CC[N+](CC)(CC)CC [TEA, tetraethylammonium]
- regulatory volume decrease (RVD) (human TM cells [1]): diminished
- niflumic acid-activated TM cell conductance (human TM cells [2]; niflumic acid 100 μM plus K channel blocker TEA 1 mM): abolished

- total K influx in TM cells (Na—K—Cl co-transporter; human TM cells, 10 μM bumetamide, 86Rb tracer): blocks a substantial portion
Compound: CCCCNc1cc(C(=O)O)cc(S(N)(=O)=O)c1Oc1ccccc1 [bumetamide]
- outflow facility [3]: sustained elevation
- reduction in intracellular volume (human TM cells [4]; 30 minute exposure): 12±4%
- reduction in intracellular volume (human TM cells [4]; 60 minute exposure): 25±6%
- cell volume of normal and glaucomatous TM cells (human TM cells [4]; normal and glaucomatous human TM cells exposed to bumetamide): decreased

Compound: Nc1ncnc2c1ncn2[C@@H]1O[C@@H]2COP(=O)(O)O[C@H]2[C@H]1O [cyclic AMP]
- inhibition of Na—K—Cl co-transporter of glaucomatous TM cells (Na—K—Cl co-transporter; glaucomatous human TM cells): insensitive
- TM cell volume (human TM cells [4]): reduce

Compound: NS(=O)(=O)c1cc(C(=O)O)c(NCc2ccco2)cc1Cl [furosemide]
- regulatory volume decrease (RVD) (human TM cells [1]): no effect

Compound: NC[C@H](O)c1ccc(O)c(O)c1 [norepinephrine]
- TM cell volume (human TM cells [4]): reduce
